Laboratory results reported in the METLIN SMRT retention time set (Domingo-Almenara et al. 2019).

Assay: gradient 5% acetonitrile 3 min, to 50% in 2 min, to 85% in 15 min, held 3 min, 100 µL/min
Details: column: Zorbax Extend-C18 2.1 x 50 mm; eluents: water / acetonitrile, 0.1% formic acid
How it was run: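 The mobile phases were water and acetonitrile, each with 0.1% formic acid, pumped at 100 μL/min through a Zorbax Extend-C18 column (2.1 × 50 mm, 1.8 μm). Pure standards were injected as mixtures of ~100 molecules and detected by a quadrupole time-of-flight mass spectrometer in positive and negative ionization mode. Retention time came from computationally picked adduct peaks, each inspected by hand.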

| SMILES | RP-LC retention time |
| --- | --- |
| O=C(NC1CC1)c1ccc(OCC2CCCN(C(=O)c3ccsc3)C2)cc1 (stereo not drawn) | 737 s |
| CC(=O)Nc1nc2c(s1)CN(CC(=O)Nc1ccc(F)c(Cl)c1)CC2 | 573 s |
| CCOC(=O)CCC(=O)Nc1cccc2ccc(-n3ccnc3)nc12 | 586 s |
| Cc1ccc(CN(C(=O)C(C)Oc2ccc(Cl)c(C)c2)C2CCS(=O)(=O)C2)o1 (stereo not drawn) | 1020 s |
| COC(=O)CNC(=O)NC(C(=O)N1CCc2ccccc21)C(C)C (stereo not drawn) | 740 s |
| CC(C)S(=O)(=O)c1cc2c(cc1NC(=O)c1ccc(C(F)(F)F)cc1)n(C)c(=O)n2C | 896 s |
| Cc1oc(-c2[nH]ncc2C(=O)N2CCCC2)cc1S(=O)(=O)NCc1ccccc1Cl | 715 s |
| COCCN1CCn2cc(S(=O)(=O)Nc3ccc(F)cc3F)cc2C1=O | 694 s |
| Cc1ccc(CNC(=O)NCC2Cn3cccc3C(=O)N2C)cc1 (stereo not drawn) | 680 s |
| O=C(NCCN1CCOCC1)c1ccc(-c2c(-c3ccc(F)cc3)ncn2C2CCCCC2)o1 | 605 s |
| CCNC(=O)N1CCCC(c2nn(C)c(=O)n2C2CCCC2)C1 (stereo not drawn) | 630 s |
| O=C(NCc1ccco1)c1ccc2c(c1)N(Cc1ccc(F)cc1)C(=O)CO2 | 830 s |
| COc1ccc2sc(Nc3nnc(-c4ccc5c(c4)OCCO5)o3)nc2c1 | 802 s |
| Cn1cc(CCNC(=O)NCc2ccco2)c2cccnc21 | 593 s |
| COC(=O)c1ccc(CN2CCN(CCN3C(=O)C4C5C=CC(C5)C4C3=O)CC2)cc1 (stereo not drawn) | 561 s |
| Cc1cccc(CNC(=O)C2(C)Cn3cnc(C(=O)NC4CCCCC4)c3C(=O)N2C2CC2)c1 (stereo not drawn) | 819 s |
| Cc1nc(C(=O)NC2CCCCC2)c(C)n1C1CCN(C)CC1 | 555 s |
| Cc1ccc(C(=O)N2C[C@@H]3C[C@H](NC(=O)c4cccnc4)[C@H]2C3)cc1F | 609 s |
| CCN1CCCC1CNc1onc(-c2ccc(Cl)cc2)c1C(=O)OC (stereo not drawn) | 699 s |
| COc1cc(Cl)c(C)cc1NC(=O)c1c(C)cc(C)cc1C | 1150 s |
| COc1cc(NC(=O)CN2C(=O)COc3ccc(C(=O)N(C)C)cc32)cc(OC)c1 | 689 s |
| COc1ccc(-c2cn3ccn(-c4ccc(F)cc4)c(=O)c3n2)cc1 | 776 s |
| CCc1ccc(OCC(=O)Nc2nc(-c3ccc(F)cc3F)cs2)cc1 | 1260 s |

| SMILES | RP-LC retention time |
| --- | --- |
| CCC(C)NC(=O)C1CC(=O)N(c2ccc3c(c2)CCN3C(=O)C2CC2)C1 (stereo not drawn) | 686 s |
| CC(C)c1ccc(N2C(=O)CN(Cc3ccccc3)C3CS(=O)(=O)CC32)cc1 (stereo not drawn) | 854 s |
| CNC(=O)c1cc(C)nc2ccc(F)cc12 | 580 s |
| O=C(CN1C(=O)C2CCCCN2c2ccc(C(=O)N3CCCC3)cc21)NCc1ccco1 (stereo not drawn) | 724 s |
| O=C(NC1CCCC1)c1ccc(CN2CCN(Cc3ccc(F)cc3)C(=O)C2=O)cc1 | 768 s |
| O=C(c1ccco1)N1N=C(c2ccco2)CC1c1ccc2nccnc2c1 (stereo not drawn) | 718 s |
| O=C(Nc1ccc(C2(C(=O)NCc3cccc(Cl)c3)CCC2)cc1)C1CC1 | 891 s |
| CCC1Oc2ccc(S(=O)(=O)N3CCC(C(=O)NC4CC4)CC3)cc2NC1=O (stereo not drawn) | 688 s |
| CC(C)COc1ccc(S(=O)(=O)N2CCOC(c3ccccc3)C2)cc1 (stereo not drawn) | 560 s |
| C[C@@H](NC(=O)c1ncnc(N)c1Cl)c1ncc(C(=O)Nc2cc(C(F)(F)F)c(Cl)cn2)s1 | 913 s |
| CCCCOc1ccc(NC(=O)c2oc3cc(C)c(Cl)cc3c2C)c2cccnc12 | 1030 s |
| Cc1cc(NC(=O)C2CCC2)nn1Cc1ccccc1 | 841 s |
| COc1ccc(CC(=O)N2CCC(c3cc(N)on3)CC2)cc1 | 662 s |
| CCSc1nnc(NC(=O)Cn2nc(-n3cccn3)ccc2=O)s1 | 653 s |
| CC(=O)Nc1ccc(C(=O)NCCNC(=O)Nc2cccs2)cc1 | 600 s |
| CCN(CC)C(=O)Cn1c(Cc2ccc(Cl)cc2)nc2ccccc21 | 693 s |
| O=C(CN1CCN(Cc2ccc(F)cc2)C1=O)NCc1ccc(F)cc1Cl | 844 s |
| COCCn1cc(CCNC(=O)Nc2ccc(Br)cc2)c2cccnc21 | 778 s |
| O=S(=O)(Cc1ccccc1F)N1CCC(OCCOCc2ccccc2)CC1 | 1010 s |
| CCOc1ccccc1C1NC(=O)N(CC(=O)Nc2ccc(C(F)(F)F)cc2)C2=C1C(=O)OC2 (stereo not drawn) | 888 s |
| CC(c1ccccc1)N1CC(=O)N(c2ccc(Cl)cc2)[C@@H]2CS(=O)(=O)C[C@@H]21 (stereo partly drawn) | 853 s |
| C[C@@H]1OC(=O)[C@H]2C[C@H]3CCCC[C@@H]3[C@@H](/C=C/[C@H]3CCC[C@H](C)N3C)[C@@H]12 | 745 s |

Second part, the molecule after the results:

| RP-LC retention time | SMILES |
| --- | --- |
| 895 s | CC(C)Cn1cc(CCNC(=O)Nc2cccc(Cl)c2)c2cccnc21 |
| 1210 s | CCN1C(=O)COc2ccc(-c3noc(-c4cccc(C)c4)n3)cc21 |
| 843 s | Cc1ccc(Nc2c(-c3cccc(O)c3)nc3cnccn23)c(Br)c1 |
| 620 s | O=C(NCCN1CCOCC1)c1ccc(Nc2c(-c3ccc(Cl)cc3)nc3cnccn23)cc1 |
| 1060 s | Cc1ccc2c(c1)N(Cc1nc(-c3ccc(F)cc3)no1)C(=O)CO2 |
| 955 s | Cc1ccc(F)cc1S(=O)(=O)N1CCC2(C1)C(=O)N(C)c1ccccc12 (stereo not drawn) |
| 1140 s | Cc1ccc(C)c(CN2CCCN(CC(=O)NC(C)CCc3ccccc3)S2(=O)=O)c1 (stereo not drawn) |
| 661 s | O=C(c1ccco1)N1CCN(c2ccc3cc(S(=O)(=O)N4CCOCC4)ccc3n2)CC1 |
| 616 s | COc1ccc(NC(=O)C2CCN(c3cncnc3N3CCCC3)CC2)cc1OC |
| 924 s | Cc1ccsc1C(=O)N1CCc2cc(-c3ccno3)ccc21 |
| 709 s | Cc1ccc(-n2nc(C)c3sc(N(C)CC(=O)N4CCN(c5ccccn5)CC4)nc32)cc1 |
| 904 s | CCOc1ccc(NC(=O)N2CCC3(CC2)NC(=O)c2ccc(Cl)cc2N3C)cc1 |
| 1110 s | CN(C)c1cccc(-c2nc(-c3cn(-c4cccc(F)c4)nn3)no2)c1 |
| 592 s | Cc1cc(OCC(=O)NCc2ccc3c(c2)OCO3)nc(N2CCCCC2)n1 |
| 764 s | CCOC(=O)Cn1c(C2CC(=O)N(Cc3ccc(F)cc3)C2)nc2ccccc21 (stereo not drawn) |
| 767 s | Cc1nnc(N2CCCC(C(=O)Nc3ccccc3Cl)C2)c2nn(-c3ccccc3)c(C)c12 (stereo not drawn) |
| 927 s | COc1cccc(NC(=O)c2sc(-c3cn(C)c4ncccc34)nc2C)c1 |
| 753 s | O=C(CSc1c(-c2ccccc2)[nH]c2ccccc12)NCC1CCCO1 (stereo not drawn) |
| 678 s | CC1CCN(c2cc(-n3cnc(C(=O)NCc4ccco4)c3)ncn2)CC1 |
| 933 s | Cc1c(-c2ccnc(N3CCCC3)n2)cnc2nc(-c3ccccc3)nn12 |
| 589 s | Cc1cccc(-c2nnc(C)c(N3CCN(c4ccccn4)CC3)n2)c1 |
| 785 s | O=C(c1cc(-c2ccccc2)n[nH]1)N1CCC2(CC1)N=C(c1ccccc1)NO2 |

| RP-LC retention time | SMILES |
| --- | --- |
| 602 s | O=C(O)c1nnn(-c2ccc3c(c2)OCO3)c1-c1cccnc1 |
| 898 s | O=C(Cn1cccc(-c2nc(-c3ccccc3)no2)c1=O)Nc1ccccc1Br |
| 651 s | Cc1ccc(S(=O)(=O)[C@H]2CS(=O)(=O)C[C@@H]2N2CCN(Cc3ccccc3)CC2)cc1 |
| 1210 s | O=C(c1ccc(Cl)s1)N1CCc2nc(-c3ccc(Cl)cc3)ncc2C1 |
| 773 s | O=C(c1c(-c2ccccc2)nnc2ccccc12)N1CCN(c2ncccn2)CC1 |
| 666 s | COc1ccc(-c2cn3c(CC(=O)N4CCCCC4)csc3n2)cc1OC |
| 646 s | O=C(CNC(=O)c1cccc(Cl)c1)Nc1nc2ccccc2[nH]1 |
| 984 s | CCOc1ccc(-c2noc(CN3N=NC4C(=O)N(c5cccc(SC)c5)C(=O)C43)n2)cc1OC (stereo not drawn) |
| 1010 s | CCc1ccc(NS(=O)(=O)c2ccc3c(c2)C(=O)N(C)c2ncccc2O3)cc1 |
| 617 s | Cc1ccc(-n2c(N3CCCC(C(=O)NCCN4CCCCC4)C3)nc3ccsc3c2=O)cc1 (stereo not drawn) |
| 856 s | COc1ccc(Nc2c(-c3ccccc3)nc3cnc(Br)cn23)cc1OC |
| 826 s | CCCNC(=O)N1CCCC1c1nc(-c2cccc(C)c2)no1 (stereo not drawn) |
| 1180 s | Fc1cccc(-c2nnc3sc(-c4ccc5ccccc5n4)nn23)c1 |
| 696 s | Cc1cc(NS(=O)(=O)c2cc3n(c2)CCCN(C)C3=O)ccc1F |
| 599 s | COc1ccc(N2CCN(C(=O)c3cc(-c4ccncc4)cn3C)CC2)cc1 |
| 847 s | O=C(Cc1cccc(F)c1)N1CCN(C(=O)c2cc(-c3cccnc3)n[nH]2)CC1 |
| 568 s | Cc1sc2cc(C(=O)N3CCN(c4ccccn4)CC3)[nH]c2c1CN1CCOCC1 |
| 610 s | Cc1nc2cccnc2n1CCN1CCN(C(=O)Nc2ccc(Cl)cc2)CC1 |
| 745 s | CC(C)n1cnc(S(=O)(=O)N2CCC(C(=O)NCCc3ccccc3)CC2)c1 |
| 819 s | Cn1cccc1C(=O)C(=O)N1CCN(c2ccc(F)cc2)CC1 |
| 1070 s | Fc1cccc(-c2nnc(Cc3nc(-c4cccc(Cl)c4)no3)o2)c1 |
